This assay deals with G-protein coupled receptor 35 (Homo sapiens, UniProt Q9HC97). In words: Human GPR35a Isoform Binding Assay. As to the method: Overexpression of Human GPR35a Baculovirus in HEK293f cells at a cell density of 2.5 106 cells/mL and a multiplicity of infection of 2.5 over 24 h in Pro293 (Lonza)+5% FBS, 1% Glutamax and 0.4% Pen/Strep. Cells harvested and centrifuged at 2500 RPM for 10 mins at 4 C. The supernatant was then poured off and the pellet stored at +-80 C. The pellet was defrosted and re-suspended in 15 mL of homogenising buffer (20 mM HEPES, 10 mM EDTA, pH 7.4). Then homogenised in mechanical homogeniser (VMR) for 10 seconds. The membrane was centrifuged in centrifuge tubes at 40,000 g for 15 mins at 4 C. The supernatant was poured away and re-suspended in 15 mL of homogenising buffer. Homogenised for 20 seconds. The membrane was centrifuged at 40,000 g for 45 mins at 4 C. The membrane was re-suspended in 3 mL of storage buffer (20 mM HEPES, 0.1 mM EDTA, pH 7.4) mixing well. The resulting membranes were then stored at +-80 . […] 0.1 uM FAC Lodoxamide was added in order to allow non-specific binding to be calculated. […] Plates were dried prior to 50 ul/well scintillant added, sealed and radioactivity measured using a MicroBeta analyser. IC50 values were derived from the inhibition curve and affinity constant (Ki) values were calculated using the Cheng-Prussoff equation, where; pKi=+-log 10 Ki.
G-protein coupled receptor 35, sequence (Q9HC97 whole entry, canonical isoform): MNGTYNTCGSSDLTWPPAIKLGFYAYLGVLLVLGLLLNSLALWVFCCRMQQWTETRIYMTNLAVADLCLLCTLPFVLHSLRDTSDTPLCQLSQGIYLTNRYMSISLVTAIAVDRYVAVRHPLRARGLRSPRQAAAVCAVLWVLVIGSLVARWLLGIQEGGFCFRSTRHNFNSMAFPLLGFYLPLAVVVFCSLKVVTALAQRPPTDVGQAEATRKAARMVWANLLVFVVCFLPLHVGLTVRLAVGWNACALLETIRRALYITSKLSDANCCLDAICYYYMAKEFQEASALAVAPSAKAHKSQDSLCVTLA

As usually defined, the Ki is a dissociation constant, usually derived from enzyme kinetics or from competition with a known ligand. Low values mean a stronger hold on the target, high ones a looser hold on the target.

Compound `O=c1c(O)c(Nc2cccc(-c3nn[nH]n3)c2)c1=O` [US20240254093, Example 1] yielded a Ki of 9.81 nM.
Next, `O=c1c(O)c(Nc2cc(-c3ccccc3)cc(-c3nn[nH]n3)c2)c1=O` [US20240254093, Example 3]: 0.35 nM.

The values are drawn from BindingDB's records for patent US20240254093 (Heptares Therapeutics Limited, 2024).
